Assay [1] can be described thus: CHO GLP-1R Clone C6 Assay 2: GLP-1R-mediated agonist activity was determined with a cell-based functional assay utilizing an HTRF (Homogeneous Time-Resolved Fluorescence) cAMP detection kit (cAMP HI Range Assay Kit; Cis Bio cat #62AM6PEJ) that measures cAMP levels in the cell. The method is a competitive immunoassay between native cAMP produced by the cells and exogenous cAMP labeled with the dye …. For orientation: Time-resolved FRET reads energy transfer from a long-lived donor to a nearby acceptor.
Description: The method is a competitive immunoassay between native cAMP produced by the cells and exogenous cAMP labeled with the dye d2. The tracer binding is visualized by a mAb anti-cAMP labeled with Cryptate. The specific signal (i.e. energy transfer) is inversely proportional to the concentration of cAMP in either a standard or an experimental sample.The human GLP-1R coding sequence (NCBI Reference Sequence NP_002053.3, including naturally-occurring variant Leu260Phe) was subcloned into pcDNA5-FRT-TO and a clonal CHO cell line stably expressing a low receptor density was isolated using the Flp-In™ T-Rex™ System, as described by the manufacturer (ThermoFisher). […] Following the 30 minute incubation, 10 μL of labeled d2 cAMP and 10 μL of anti-cAMP antibody (both diluted 1:20 in cell lysis buffer; as described in the manufacturer's assay protocol) were added to each well of the assay plate. […] Raw data were converted to nM cAMP by interpolation from a cAMP standard curve (as described in the manufacturer's assay protocol) and the percent effect was determined relative to a saturating concentration of the full agonist GLP-1 (1 μM) included on each plate. EC50 determinations were made from agonist dose response curves analyzed with a curve fitting program using a 4-parameter logistic dose response equation.

A short description of assay [2]: CHO GLP-1R Clone H6 Assay 1: GLP-1R-mediated agonist activity was determined with a cell-based functional assay utilizing an HTRF (Homogeneous Time-Resolved Fluorescence) cAMP detection kit (cAMP HI Range Assay Kit; CisBio cat #62AM6PEJ) that measures cAMP levels in the cell. The method is a competitive immunoassay between native cAMP produced by the cells and exogenous cAMP labeled with the dye ….
Description: The method is a competitive immunoassay between native cAMP produced by the cells and exogenous cAMP labeled with the dye d2. The tracer binding is visualized by a mAb anti-cAMP labeled with Cryptate. […] A 1 mL sample of the cell suspension in growth media was counted on a Becton Dickinson ViCell to determine cell viability and cell count per mL. […] Following the 30 minute incubation, 10 μL of labeled d2 cAMP and 10 μL of anti-cAMP antibody (both diluted 1:20 in cell lysis buffer; as described in the manufacturer's assay protocol) were added to each well of the assay plate. […] Raw data were converted to nM cAMP by interpolation from a cAMP standard curve (as described in the manufacturer's assay protocol) and the percent effect was determined relative to a saturating concentration of the full agonist GLP-17-36 (1 μM) included on each plate. EC50 determinations were made from agonist dose-response curves analyzed with a curve fitting program using a 4-parameter logistic dose response equation.

Bounds are passed on as bounds.

The EC50 is the midpoint of the concentration-response curve.

In assay [1], `COCCn1c(C2CC23CCN(c2cccc4c2OC(C)(c2ccc(Cl)cc2F)O4)CC3)nc2ccc(C(=O)O)cc21` (configuration not stated) showed a concentration giving a half-maximal response (EC50) of more than 20000 nM.
For `COCCn1c(CN2CCN(c3cccc4c3O[C@H](c3ccc(Cl)cc3F)O4)CC2)nc2ccc(C(=O)OC)cc21`, the EC50 in assay [1] is more than 20000 nM; in assay [2], 880 nM.
Regarding `COCCn1c(CN2CCN(c3cccc4c3O[C@@H](c3ccc(Cl)cc3F)O4)CC2)nc2ccc(C(=O)OC)cc21`, the concentration for a half-maximal effect (EC50) in assay [1] is 260 nM; in assay [2], 6.6 nM.
On the same counts, the results for `COCCn1c([C@@H]2CC23CCN(c2cccc4c2OC(C)(c2ccc(Cl)cc2F)O4)CC3)nc2ccc(C(=O)OC)cc21` (some centres not stated) are more than 20000 nM and more than 18000 nM.
The like results for `C[C@]1(c2ccc(Cl)cc2F)Oc2cccc(C3CCN(Cc4nc5ccc(C(=O)O)cc5n4Cc4ncco4)CC3)c2O1` were, in that order, 38 nM and 4.5 nM.
The like results for `COCCn1c([C@H]2CC23CCN(c2cccc4c2OC(C)(c2ccc(Cl)cc2F)O4)CC3)nc2ccc(C(=O)OC)cc21` (some centres not stated) were, in that order, 120 nM and 7.7 nM.
Turning to `COCCn1c(CN2CCC(c3cccc4c3OC(c3ccc(Cl)cc3F)O4)CC2)nc2ccc(C(=O)O)cc21` (single isomer, unassigned), in assay [1], the EC50 was more than 20000 nM.

Values taken from ChEMBL document CHEMBL5727810, “GLP-1 receptor agonists and uses thereof” (2020).
